Like-named read-outs stand apart in the source and are kept apart here. Where a SMILES comes first, the peptide text is derived from it. [ ]: non-standard residue; d: D form. The star is where a group is joined. 5FAM = O=C1OC2(c3ccc(O)cc3Oc3cc(O)ccc32)c2ccc(C(=O)*)cc21; pY = N[C@@H](Cc1ccc(OP(=O)(O)O)cc1)C(=O)O; βAla = NCCC(=O)O
Legend:
[1] = tested on: MDA-MB-468 cancer cell line; assay: Cell growth assay (WST-8); assay type: cell-based; conditions: Homo sapiens, MDA-MB-468, 96 h, WST-8, 4 days
Procedure: (§1) The effect of STAT3 compounds on cell growth was evaluated by a WST-8 [2-(2-methoxy-4-nitrophenyl)-3-(4-nitrophenyl)-5-(2,4-disulfophenyl)-2H-tetrazolium, monosodium salt assay (Dojindo Molecular Technologies, Inc). Cells (3000-4000 cells in each well) were cultured in 96-well tissue culture plates in medium (200 μL) containing various concentrations of STAT3 compounds for 4 days. At the end of incubation, WST-8 dye (20 μL) was added to each well and incubated for an additional 1-3 h, and then the absorbance was measured in a microplate reader (Molecular Devices) at 450 nm. Cell growth inhibition was evaluated as the ratio of the absorbance of the sample to that of the control.

[2] = tested on: MDA-MB-231 cancer cell line; assay: Cell growth assay (WST-8); assay type: cell-based; conditions: Homo sapiens, MDA-MB-231, 96 h, WST-8, 4 days
Procedure: as §1

[3] = target: T1, STAT3 protein (Homo sapiens, UniProt P40763); assay: In vitro competitive STAT3 binding assay (fluorescence polarization)
T1 construct: human STAT3 protein (residues 122-722) fused to His-tag; His-tag
Source text: To quantitatively determine the binding affinities of STAT3 inhibitors to STAT3 protein, a sensitive and quantitative in vitro binding assay was developed based upon fluorescence polarization (FP) method. For this FP assay, 5-carboxyfluorescein (5-Fam) was coupled to a phosphopeptide (phospho-Tyr-Leu-Pro-Gln-Thr-Val-amide) with two beta-alanine and one glycine residues as the spacer between 5-Fam and the phosphopeptide to obtain 5-Fam-beta-Ala-beta-Ala-Gly-phospho-Tyr-Leu-Pro-Gln-Thr-Val-amide as the fluorescently tagged tracer, which was named as STT2 peptide. […] The recombinant human STAT3 protein (residues 122-722) fused to His-tag was stable and soluble.
Competitive binding experiments were carried out using 150 nM of STAT3 protein and 5 nM of STT2 peptide with different concentrations of a tested STAT3 inhibitor. For each experiment, two controls were included. One control contained STAT3 protein and STT2 peptide, and the second control contained STT2 peptide only. The polarization values were measured after 2-3 hours of incubation using an ULTRA READER (Tecan U.S. Inc., Research Triangle Park, N.C.). IC50 values, the inhibitor concentration at which 50% of the fluorescently tagged STT2 peptide is displaced by STAT3 inhibitors, was determined from a plot using nonlinear least-squares analysis using GRAPHPAD PRISM software (GraphPad Software, Inc., San Diego, Calif.). […]

[4] = read-out: Inhibition of cell growth IC50, MDA-MB-468 cancer cell line
[5] = read-out: Inhibition of cell growth IC50, MDA-MB-231 cancer cell line
[6] = FP competitive binding, fluorescently tagged STT2 peptide tracer, read-out: Binding affinities to STAT3 IC50
[7] = Table 2 prints no column heads, columns and unit as in Table 1, read-out: Inhibition of cell growth IC50, MDA-MB-468 cancer cell line (pro-drugs, Table 2)
[8] = Table 2 prints no column heads, columns and unit as in Table 1, read-out: Inhibition of cell growth IC50, MDA-MB-231 cancer cell line (pro-drugs, Table 2)

T1 sequence (P40763 122-722): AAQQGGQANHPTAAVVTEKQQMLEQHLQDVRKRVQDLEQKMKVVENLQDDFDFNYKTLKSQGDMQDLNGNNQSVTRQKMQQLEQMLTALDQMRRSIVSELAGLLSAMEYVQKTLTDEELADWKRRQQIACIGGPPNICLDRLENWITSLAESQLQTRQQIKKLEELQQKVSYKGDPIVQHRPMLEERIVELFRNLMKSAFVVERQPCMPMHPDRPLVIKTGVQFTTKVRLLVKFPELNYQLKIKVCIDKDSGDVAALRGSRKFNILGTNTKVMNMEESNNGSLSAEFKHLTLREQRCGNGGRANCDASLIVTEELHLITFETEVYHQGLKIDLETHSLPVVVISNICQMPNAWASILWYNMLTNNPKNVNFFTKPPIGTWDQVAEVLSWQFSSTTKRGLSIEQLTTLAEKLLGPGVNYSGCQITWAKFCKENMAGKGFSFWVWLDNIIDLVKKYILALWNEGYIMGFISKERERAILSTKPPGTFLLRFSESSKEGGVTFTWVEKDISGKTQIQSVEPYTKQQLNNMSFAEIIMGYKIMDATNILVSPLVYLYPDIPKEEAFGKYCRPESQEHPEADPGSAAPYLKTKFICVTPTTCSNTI

Row | Compound | IC50 [1, 4] [µM] | IC50 [2, 5] [µM] | IC50 [3] [µM] | IC50 [1, 7] [µM] | further results
1 | O=C(CC[C@H](NC(=O)[C@@H]1CCC2CCCC[C@H](NC(=O)[C@H](Cc3ccc(OP(=O)(O)O)cc3)NC(=O)OCc3ccccc3)C(=O)N21)C(=O)NCc1ccccc1)NC(c1ccccc1)(c1ccccc1)c1ccccc1 (some centres unmarked) | < 50 | < 50 | < 20 |  | 
2 | NC(=O)CC[C@H](NC(=O)[C@@H]1CCC2CCCC[C@H](NC(=O)[C@H](Cc3ccc(OP(=O)(O)O)cc3)NC(=O)CCOCCOCCOCCOCCNC(=O)CCCCC3SCC4NC(=O)NC43)C(=O)N21)C(=O)NCc1ccccc1 (some centres unmarked) |  |  | < 1 |  | 
3 | NC(=O)CC[C@H](NC(=O)[C@@H]1CCC2CCNC[C@H](NC(=O)[C@@H](N)Cc3ccc(OP(=O)(O)O)cc3)C(=O)N21)C(=O)NCc1ccccc1 (some centres unmarked) | > 100 | > 100 | < 100 |  | 
4 | CCCCCCCCN(CCCCCCCC)[C@@H](Cc1ccc(OP(=O)(O)O)cc1)C(=O)N[C@H]1CCCCC2CC[C@@H](C(=O)N[C@@H](CCC(N)=O)C(=O)NCc3ccccc3)N2C1=O (some centres unmarked) |  | > 100 |  |  | IC50 [3, 6]: < 100 µM
5 | CC[C@H](NC(=O)[C@@H]1CCC2CCCC[C@H](NC(=O)[C@H](Cc3ccc(OP(=O)(O)O)cc3)NC(=O)OCc3ccccc3)C(=O)N21)C(=O)NCc1ccccc1 (some centres unmarked) | > 30 | > 30 | > 10 |  | 
6 | NC(=O)CC[C@H](NC(=O)[C@@H]1CCC2CCCC[C@H](NC(=O)CCc3ccc(OP(=O)(O)O)cc3)C(=O)N21)C(=O)NCc1ccccc1 (some centres unmarked) | > 100 | > 100 | < 5 |  | 
7 | CCCCCCCCCCCCCCCCNC(=O)[C@H](CCC(N)=O)NC(=O)[C@@H]1CC[C@@H]2CCCC[C@H](NC(=O)[C@H](Cc3ccc(OP(=O)(O)O)cc3)NC(=O)CCN3CCOCC3)C(=O)N21 | < 40 | < 40 | < 5 |  | 
8 | CCCCCCCCCCCCCCCCN1CCN(CCC(=O)N[C@@H](Cc2ccc(OP(=O)(O)O)cc2)C(=O)N[C@H]2CCCCC3CC[C@@H](C(=O)NCCc4nnn[nH]4)N3C2=O)CC1 (some centres unmarked) | < 50 | < 50 |  |  | 
9 | CC(C)(C)C(=O)OCOP(=O)(Cc1ccc(C[C@H](NC(=O)OCC2c3ccccc3-c3ccccc32)C(=O)N[C@H]2CCCCC3CC[C@@H](C(=O)N[C@@H](CCC(N)=O)C(=O)NCc4ccccc4)N3C2=O)cc1)OCOC(=O)C(C)(C)C (some centres unmarked) |  |  |  | < 10 | IC50 [2, 8]: < 10 µM
10 | CC(C)(C)C(=O)OCOP(=O)(COc1ccc(C[C@H](NC(=O)OCc2ccccc2)C(=O)N[C@H]2CCCCC3CC[C@@H](C(=O)N[C@@H](CCC(N)=O)C(=O)NCc4ccccc4)N3C2=O)cc1)OCOC(=O)C(C)(C)C (some centres unmarked) |  |  |  | > 50 | IC50 [2, 8]: > 50 µM
11 | CC(C)(C)C(=O)OCOP(=O)(O)COc1ccc(C[C@H](NC(=O)OCc2ccccc2)C(=O)N[C@H]2CCCCC3CC[C@@H](C(=O)N[C@@H](CCC(N)=O)C(=O)NCc4ccccc4)N3C2=O)cc1 (some centres unmarked) |  |  |  | > 50 | IC50 [2, 8]: > 50 µM
12 | CC(C)(C)C(=O)OCOP(=O)(OCOC(=O)C(C)(C)C)C(F)(F)c1ccc(/C=C/C(=O)N[C@H]2CCCCC3CC[C@@H](C(=O)NCCc4cn[nH]c4)N3C2=O)cc1 (some centres unmarked) |  |  |  | < 30 | 
13 | CC(C)(C)C(=O)OCOP(=O)(OCOC(=O)C(C)(C)C)C(F)(F)c1ccc(/C=C/C(=O)N[C@H]2CCCCC3CC[C@@H](C(=O)N[C@@H](CCC(N)=O)C(=O)NCc4ccccc4)N3C2=O)cc1 (some centres unmarked) |  |  |  | > 100 | 
14 | CCCCCCCCCCCCCCCCOP(=O)(OCCCCCCCCCCCCCCCC)C(F)(F)c1ccc2cc(C(=O)N[C@H]3CCCC[C@H]4CC[C@@H](C(=O)NCCc5cn[nH]c5)N4C3=O)[nH]c2c1 |  |  |  | > 100 | 
15 | CCCCCCCCCCCCCCCCOP(=O)(OCCCCCCCCCCCCCCCC)C(F)(F)c1ccc2cc(C(=O)N[C@H]3CCCC[C@H]4CC[C@@H](C(=O)N(CC)CC)N4C3=O)[nH]c2c1 |  |  |  | > 100 | 
16 | CCCCCCCCCCCCCCCCOP(=O)(OCCCCCCCCCCCCCCCC)C(F)(F)c1ccc2cc(C(=O)N[C@H]3CCCC[C@H]4CC[C@@H](C(=O)NC(CCC(N)=O)C(=O)NCc5ccccc5)N4C3=O)[nH]c2c1 (some centres unmarked) |  |  |  | < 30 | 
17 | CCCCCCCCCCCCCCCCOP(=O)(O)C(F)(F)c1ccc2cc(C(=O)N[C@H]3CCCC[C@H]4CC[C@@H](C(=O)NCCc5cn[nH]c5)N4C3=O)[nH]c2c1 |  |  |  | > 100 | 

Row | Compound | IC50 [1, 4] [µM] | IC50 [2, 5] [µM] | IC50 [3] [µM] | IC50 [1, 7] [µM] | further results
18 | CCCCCCCCCCCCCCCCOP(=O)(O)C(F)(F)c1ccc2cc(C(=O)N[C@H]3CCCC[C@H]4CC[C@@H](C(=O)NC(CCC(N)=O)C(=O)NCc5ccccc5)N4C3=O)[nH]c2c1 (some centres unmarked) |  |  |  | > 50 | 
19 | CC(=O)N[C@@H](Cc1ccc(OCP(=O)(O)O)cc1)C(=O)N[C@H]1CCCCC2CC[C@@H](C(=O)N[C@@H](CCC(N)=O)C(=O)NCc3ccccc3)N2C1=O (stereo in doubt) [Example 31] |  | > 100 | < 10 |  | 
20 | CCOP(=O)(O)CCCCCC(=O)N[C@H]1CCCC[C@H]2CC[C@@H](C(=O)N[C@@H](CCC(N)=O)C(=O)NCc3ccccc3)N2C1=O [Example 23] |  | > 100 |  |  | IC50 [3, 6]: > 100 µM
21 | CC(=O)N[C@@H](Cc1ccc(CP(=O)(O)O)cc1)C(=O)N[C@H]1CCCC[C@H]2CC[C@@H](C(=O)N[C@@H](Cc3c[nH]cn3)C(=O)NCc3ccccc3)N2C1=O [Example 27] |  | > 100 | > 10 |  | 
22 | CN(C)[C@@H](Cc1ccc(CP(=O)(O)O)cc1)C(=O)N[C@H]1CCCC[C@H]2CC[C@@H](C(=O)N[C@@H](Cc3c[nH]cn3)C(=O)NCc3ccccc3)N2C1=O [Example 28] | > 100 |  |  |  | IC50 [3, 6]: > 10 µM
23 | NC(=O)CC[C@H](NC(=O)[C@@H]1CCC2CCCC[C@H](NC(=O)c3cc4cc(C(F)(F)P(=O)(O)O)ccc4[nH]3)C(=O)N21)C(=O)NCc1ccccc1 (some centres unmarked) [Example 59] | > 100 |  | < 1 |  | 
24 | Cn1c(C(=O)N[C@H]2CCCCC3CC[C@@H](C(=O)NC(CCC(N)=O)C(=O)NCc4ccccc4)N3C2=O)cc2cc(C(F)(F)P(=O)(O)O)ccc21 (some centres unmarked) [Example 61] | > 100 |  |  |  | IC50 [3, 6]: < 5 µM
25 | CCOP(=O)(OCC)C(F)(F)c1ccc2c(c1)cc(C(=O)N[C@H]1CCCCC3CC[C@@H](C(=O)NC(CCC(N)=O)C(=O)NCc4ccccc4)N3C1=O)n2C (some centres unmarked) [Example 62] |  |  |  | > 100 | 
26 | CC(C)(C)C(=O)OCOP(=O)(OCOC(=O)C(C)(C)C)C(F)(F)c1ccc2[nH]c(C(=O)N[C@H]3CCCCC4CC[C@@H](C(=O)NCCc5cn[nH]c5)N4C3=O)cc2c1 (some centres unmarked) [Example 63] |  |  |  | < 50 | 
27 | CC(C)(C)C(=O)OCOP(=O)(OCOC(=O)C(C)(C)C)C(F)(F)c1ccc2[nH]c(C(=O)N[C@H]3CCCCC4CC[C@@H](C(=O)NC(CCC(N)=O)C(=O)NCc5ccccc5)N4C3=O)cc2c1 (some centres unmarked) [Example 64] |  |  |  | > 100 | 
28 | NC(=O)CCC(NC(=O)[C@@H]1CCC2CCCC[C@H](NC(=O)c3cc4cc(C(F)(F)P(=O)(O)O)ccc4o3)C(=O)N21)C(=O)NCc1ccccc1 (some centres unmarked) [Example 65] | > 100 |  |  |  | IC50 [3, 6]: > 10 µM
29 | CCCCCCCCCCCCCCCCNC(=O)C(CCC(N)=O)NC(=O)[C@@H]1CCC2CCCC[C@H](NC(=O)c3cc4cc(C(F)(F)P(=O)(O)O)ccc4[nH]3)C(=O)N21 (some centres unmarked) [Example 66] | > 100 |  | < 1 |  | 
30 | CCCCCCCCCCCCCCCCNC(=O)C(CCC(N)=O)NC(=O)[C@@H]1CCC2CCCC[C@H](NC(=O)c3cc4cc(C(F)(F)P(=O)(OCOC(=O)C(C)(C)C)OCOC(=O)C(C)(C)C)ccc4[nH]3)C(=O)N21 (some centres unmarked) [Example 67] |  |  |  | > 100 | 
31 | CC(C)OC(=O)OCOP(=O)(OCOC(=O)OC(C)C)C(F)(F)c1ccc2[nH]c(C(=O)N[C@H]3CCCCC4CC[C@@H](C(=O)NC(CCC(N)=O)C(=O)NCc5ccccc5)N4C3=O)cc2c1 (some centres unmarked) [Example 68] |  |  |  | > 100 | 
32 | CC(C)OC(=O)OCOP(=O)(OCOC(=O)OC(C)C)C(F)(F)c1ccc2[nH]c(C(=O)N[C@H]3CCCCC4CC[C@@H](C(=O)NCCc5cn[nH]c5)N4C3=O)cc2c1 (some centres unmarked) [Example 69] |  |  |  | > 100 | 
33 | CC(C)C[C@H](NC(=O)[C@H](Cc1ccc(OP(=O)(O)O)cc1)NC(=O)CNC(=O)CCNC(=O)CCNC(=O)c1ccc2c(c1)C(=O)OC21c2ccc(O)cc2Oc2cc(O)ccc21)C(=O)N1CCC[C@H]1C(=O)N[C@@H](CCC(N)=O)C(=O)N[C@H](C(=O)N[C@H](C(N)=O)C(C)C)[C@@H](C)O [STT2 peptide, 5-Fam-beta-Ala-beta-Ala-Gly-phospho-Tyr-Leu-Pro-Gln-Thr-Val-amide, reference compound] ({5FAM-βAla-βAla}-G[pY]LPQTV-NH2) |  |  |  |  | Kd [3]: 0.047 µM

From patent US20110319362A1, “STAT3 LIGANDS AND THERAPEUTIC USES THEREOF” (priority 2008, published 2011)
